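Protocol summary: plate cells (96-well), add compound at 5 concentrations, incubate 48 h, interpolate endpoints linearly. Definition used: TGI = concentration required for complete inhibition of growth.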
How the values were obtained:
Assay in all cases: NCI-60 cell line screen, 48 h
HCC-2998 colon = tested on: HCC-2998 colon
OVCAR-3 ovarian = tested on: OVCAR-3 ovarian
MCF7 breast = tested on: MCF7 breast
NCI-H226 lung = tested on: NCI-H226 lung
HOP-62 NSCLC = tested on: HOP-62 NSCLC
NCI/ADR-RES ovarian = tested on: NCI/ADR-RES ovarian
EKVX NSCLC = tested on: EKVX NSCLC
A549 NSCLC = tested on: A549 NSCLC
SK-MEL-2 melanoma = tested on: SK-MEL-2 melanoma
PC-3 prostate = tested on: PC-3 prostate
SNB-19 CNS = tested on: SNB-19 CNS
UO-31 renal = tested on: UO-31 renal
KM12 colon = tested on: KM12 colon
LOX IMVI melanoma = tested on: LOX IMVI melanoma
SK-MEL-5 melanoma = tested on: SK-MEL-5 melanoma
OVCAR-8 ovarian = tested on: OVCAR-8 ovarian
SF-295 CNS = tested on: SF-295 CNS
COLO 205 colon = tested on: COLO 205 colon
OVCAR-4 ovarian = tested on: OVCAR-4 ovarian
SK-MEL-28 melanoma = tested on: SK-MEL-28 melanoma
OVCAR-5 ovarian = tested on: OVCAR-5 ovarian
IGROV1 ovarian = tested on: IGROV1 ovarian
K-562 leukemia = tested on: K-562 leukemia
HT29 colon = tested on: HT29 colon
HCT-116 colon = tested on: HCT-116 colon
TK-10 renal = tested on: TK-10 renal
HS 578T breast = tested on: HS 578T breast
HOP-92 NSCLC = tested on: HOP-92 NSCLC
HCT-15 colon = tested on: HCT-15 colon
MDA-MB-435 = tested on: MDA-MB-435
BT-549 breast = tested on: BT-549 breast
786-0 renal = tested on: 786-0 renal
MDA-MB-231 breast = tested on: MDA-MB-231 breast
UACC-257 melanoma = tested on: UACC-257 melanoma
SR leukemia = tested on: SR leukemia
A498 renal = tested on: A498 renal
NCI-H522 lung = tested on: NCI-H522 lung
U251 CNS = tested on: U251 CNS
NCI-H23 lung = tested on: NCI-H23 lung
MALME-3M melanoma = tested on: MALME-3M melanoma
SF-268 CNS = tested on: SF-268 CNS
SK-OV-3 ovarian = tested on: SK-OV-3 ovarian
SF-539 CNS = tested on: SF-539 CNS
SW-620 colon = tested on: SW-620 colon
M14 melanoma = tested on: M14 melanoma
T-47D breast = tested on: T-47D breast
UACC-62 melanoma = tested on: UACC-62 melanoma
MOLT-4 leukemia = tested on: MOLT-4 leukemia
MDA-N = tested on: MDA-N
SN12C renal = tested on: SN12C renal
CCRF-CEM leukemia = tested on: CCRF-CEM leukemia
CAKI-1 renal = tested on: CAKI-1 renal
HL-60(TB) leukemia = tested on: HL-60(TB) leukemia
RPMI-8226 leukemia = tested on: RPMI-8226 leukemia
NCI-H460 lung = tested on: NCI-H460 lung
DU-145 prostate = tested on: DU-145 prostate
ACHN renal = tested on: ACHN renal
RXF 393 renal = tested on: RXF 393 renal
SNB-75 CNS = tested on: SNB-75 CNS

COc1ccc(-c2oc3c(OC)c(OC)c(OC)c(OC)c3c(=O)c2OC)cc1OC
TGI (HCC-2998 colon): > 100 µM | TGI (OVCAR-3 ovarian): 54.4 µM | TGI (MCF7 breast): > 100 µM | TGI (NCI-H226 lung): > 100 µM | TGI (HOP-62 NSCLC): 59.8 µM | TGI (NCI/ADR-RES ovarian): 74 µM | TGI (EKVX NSCLC): > 100 µM | TGI (A549 NSCLC): > 100 µM | TGI (SK-MEL-2 melanoma): > 100 µM | TGI (PC-3 prostate): > 100 µM | TGI (SNB-19 CNS): > 100 µM | TGI (UO-31 renal): > 100 µM | TGI (KM12 colon): > 100 µM | TGI (LOX IMVI melanoma): > 100 µM | TGI (SK-MEL-5 melanoma): 66.3 µM | TGI (OVCAR-8 ovarian): 93.6 µM | TGI (SF-295 CNS): > 100 µM | TGI (COLO 205 colon): > 100 µM | TGI (OVCAR-4 ovarian): > 100 µM | TGI (SK-MEL-28 melanoma): > 100 µM | TGI (OVCAR-5 ovarian): > 100 µM | TGI (IGROV1 ovarian): > 100 µM | TGI (K-562 leukemia): > 100 µM | TGI (HT29 colon): 64.8 µM | TGI (HCT-116 colon): > 100 µM | TGI (TK-10 renal): > 100 µM | TGI (HS 578T breast): 56.3 µM | TGI (HOP-92 NSCLC): 0.0897 µM | TGI (HCT-15 colon): > 100 µM | TGI (MDA-MB-435): 98.7 µM | TGI (BT-549 breast): > 100 µM | TGI (786-0 renal): > 100 µM | TGI (MDA-MB-231 breast): > 100 µM | TGI (UACC-257 melanoma): > 100 µM | TGI (SR leukemia): 79.9 µM | TGI (A498 renal): > 100 µM | TGI (NCI-H522 lung): 49.4 µM | TGI (U251 CNS): > 100 µM | TGI (NCI-H23 lung): > 100 µM | TGI (MALME-3M melanoma): 68 µM | TGI (SF-268 CNS): 35.2 µM | TGI (SK-OV-3 ovarian): > 100 µM | TGI (SF-539 CNS): > 100 µM | TGI (SW-620 colon): > 100 µM | TGI (M14 melanoma): > 100 µM | TGI (T-47D breast): > 100 µM | TGI (UACC-62 melanoma): > 100 µM | TGI (MOLT-4 leukemia): > 100 µM | TGI (MDA-N): > 100 µM | TGI (SN12C renal): > 100 µM | TGI (CCRF-CEM leukemia): > 100 µM | TGI (CAKI-1 renal): > 100 µM | TGI (HL-60(TB) leukemia): 46.7 µM | TGI (RPMI-8226 leukemia): 34 µM | TGI (NCI-H460 lung): 57 µM | TGI (DU-145 prostate): > 100 µM | TGI (ACHN renal): > 100 µM

Cc1cc(C)c(S(=O)(=O)N(CCCN)OCCCON(CCCN)S(=O)(=O)c2c(C)cc(C)cc2C)c(C)c1
TGI (OVCAR-3 ovarian): 4.26 µM | TGI (MCF7 breast): 3.41 µM | TGI (NCI-H226 lung): 7.66 µM | TGI (HOP-62 NSCLC): 4.02 µM | TGI (NCI/ADR-RES ovarian): 36.4 µM | TGI (EKVX NSCLC): 19.4 µM | TGI (A549 NSCLC): 3.3 µM | TGI (SK-MEL-2 melanoma): 3.29 µM | TGI (RXF 393 renal): 15.7 µM | TGI (PC-3 prostate): 3.45 µM | TGI (SNB-75 CNS): 3.29 µM | TGI (SNB-19 CNS): 3.17 µM | TGI (UO-31 renal): 30.4 µM | TGI (KM12 colon): 3.79 µM | TGI (LOX IMVI melanoma): 3.11 µM | TGI (SK-MEL-5 melanoma): > 42.8 µM | TGI (OVCAR-8 ovarian): 11 µM | TGI (SF-295 CNS): 21.4 µM | TGI (COLO 205 colon): 3.5 µM | TGI (OVCAR-4 ovarian): 5.22 µM | TGI (SK-MEL-28 melanoma): 3.94 µM | TGI (OVCAR-5 ovarian): 5.86 µM | TGI (IGROV1 ovarian): 3.86 µM | TGI (K-562 leukemia): > 22.5 µM | TGI (HT29 colon): 3.22 µM | TGI (HCT-116 colon): 3.17 µM | TGI (TK-10 renal): 16.5 µM | TGI (HS 578T breast): 3.16 µM | TGI (HOP-92 NSCLC): 5.27 µM | TGI (HCT-15 colon): 34.8 µM | TGI (MDA-MB-435): 4.21 µM | TGI (BT-549 breast): 8.64 µM | TGI (786-0 renal): 5.86 µM | TGI (MDA-MB-231 breast): 3.31 µM | TGI (UACC-257 melanoma): 3.44 µM | TGI (SR leukemia): 7.83 µM | TGI (A498 renal): 10.7 µM | TGI (NCI-H522 lung): 2.88 µM | TGI (U251 CNS): 3.08 µM | TGI (NCI-H23 lung): 4.66 µM | TGI (MALME-3M melanoma): 2.61 µM | TGI (SF-268 CNS): 2.8 µM | TGI (SK-OV-3 ovarian): 3.58 µM | TGI (SF-539 CNS): 3.77 µM | TGI (SW-620 colon): 6.45 µM | TGI (M14 melanoma): 3.21 µM | TGI (T-47D breast): 3.36 µM | TGI (UACC-62 melanoma): 6.09 µM | TGI (MOLT-4 leukemia): 10.7 µM | TGI (MDA-N): 3.51 µM | TGI (SN12C renal): 13.6 µM | TGI (CCRF-CEM leukemia): 16.8 µM | TGI (CAKI-1 renal): 29.3 µM | TGI (HL-60(TB) leukemia): 5.64 µM | TGI (RPMI-8226 leukemia): 6.55 µM | TGI (NCI-H460 lung): 3.18 µM | TGI (DU-145 prostate): 3.15 µM | TGI (ACHN renal): 28.9 µM

CCCCSc1nsc(N(C(=O)c2ccccc2)C(=O)c2ccccc2)n1
TGI (HCC-2998 colon): 74.4 µM | TGI (OVCAR-3 ovarian): 61.1 µM | TGI (MCF7 breast): > 100 µM | TGI (NCI-H226 lung): 93.9 µM | TGI (HOP-62 NSCLC): > 100 µM | TGI (NCI/ADR-RES ovarian): > 100 µM | TGI (EKVX NSCLC): 77.4 µM | TGI (A549 NSCLC): > 100 µM | TGI (SK-MEL-2 melanoma): 71.1 µM | TGI (RXF 393 renal): > 100 µM | TGI (PC-3 prostate): > 100 µM | TGI (SNB-75 CNS): 73.8 µM | TGI (SNB-19 CNS): > 100 µM | TGI (UO-31 renal): 39.5 µM | TGI (KM12 colon): > 100 µM | TGI (LOX IMVI melanoma): > 100 µM | TGI (SK-MEL-5 melanoma): 36.6 µM | TGI (OVCAR-8 ovarian): > 100 µM | TGI (SF-295 CNS): > 100 µM | TGI (COLO 205 colon): 41.5 µM | TGI (OVCAR-4 ovarian): > 100 µM | TGI (SK-MEL-28 melanoma): > 100 µM | TGI (OVCAR-5 ovarian): 89.4 µM | TGI (IGROV1 ovarian): > 100 µM | TGI (K-562 leukemia): 99.7 µM | TGI (HT29 colon): 82.5 µM | TGI (HCT-116 colon): 92.6 µM | TGI (TK-10 renal): > 100 µM | TGI (HS 578T breast): 89.7 µM | TGI (HOP-92 NSCLC): 75 µM | TGI (HCT-15 colon): > 100 µM | TGI (MDA-MB-435): > 100 µM | TGI (BT-549 breast): 92.1 µM | TGI (786-0 renal): > 100 µM | TGI (UACC-257 melanoma): 74.9 µM | TGI (SR leukemia): 48.3 µM | TGI (A498 renal): 88.8 µM | TGI (NCI-H522 lung): 69.5 µM | TGI (U251 CNS): > 100 µM | TGI (NCI-H23 lung): > 100 µM | TGI (MALME-3M melanoma): 71.1 µM | TGI (SF-268 CNS): > 100 µM | TGI (SK-OV-3 ovarian): > 100 µM | TGI (SF-539 CNS): 64.3 µM | TGI (SW-620 colon): > 100 µM | TGI (M14 melanoma): > 100 µM | TGI (T-47D breast): > 100 µM | TGI (UACC-62 melanoma): 60.1 µM | TGI (MOLT-4 leukemia): 59.5 µM | TGI (MDA-N): > 100 µM | TGI (SN12C renal): > 100 µM | TGI (CCRF-CEM leukemia): > 100 µM | TGI (CAKI-1 renal): > 100 µM | TGI (HL-60(TB) leukemia): 74 µM | TGI (RPMI-8226 leukemia): 47.2 µM | TGI (NCI-H460 lung): 76.9 µM | TGI (DU-145 prostate): > 100 µM | TGI (ACHN renal): > 100 µM
